pIC50: −log10 of the molar value.
Experiments:
Experiment in all cases: cells
CP50-MEL-B = assay type: functional, cell-based, Homo sapiens; conditions: Homo sapiens, CP50-MEL-B;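 also: growth inhibition of the human cell line, measured with a cell viability read-out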
Description: SANGER: Inhibition of human CP50-MEL-B cell growth in a cell viability assay.

DEL = assay type: functional, cell-based; conditions: Homo sapiens;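 also: growth inhibition of the human DEL cell line, read out with a cell viability assay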
Description: SANGER: Inhibition of human DEL cell growth in a cell viability assay.

DOHH-2 = assay type: functional, cell-based; conditions: Homo sapiens;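 also: growth inhibition of human DOHH-2 cells, read out with a cell viability assay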
Description: SANGER: Inhibition of human DOHH-2 cell growth in a cell viability assay.

DOK = assay type: functional, cell-based, Homo sapiens; conditions: Homo sapiens, DOK;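 also: cell viability assay read-out, values reflect inhibition of cell growth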
Description: SANGER: Inhibition of human DOK cell growth in a cell viability assay.

Daoy = assay type: functional, cell-based, Homo sapiens; conditions: Homo sapiens, Daoy;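 also: daoy cell growth inhibition, read out as cell viability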
Description: SANGER: Inhibition of human Daoy cell growth in a cell viability assay.

ETK-1 = assay type: functional, cell-based, Homo sapiens; conditions: Homo sapiens, ETK-1;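 also: growth inhibition of human ETK-1 cells, read out with a cell viability assay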
Description: SANGER: Inhibition of human ETK-1 cell growth in a cell viability assay.

EW-1 = assay type: functional, cell-based, Homo sapiens; conditions: Homo sapiens, EW-1
Description: SANGER: Inhibition of human EW-1 cell growth in a cell viability assay.

EW-18 = assay type: functional, cell-based; conditions: Homo sapiens;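 also: growth inhibition of EW-18 cells, read out by a cell viability assay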
Description: SANGER: Inhibition of human EW-18 cell growth in a cell viability assay.

EW-24 = assay type: functional, cell-based; conditions: Homo sapiens;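 also: human EW-24 cancer cell line, growth inhibition read out via a cell viability assay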
Description: SANGER: Inhibition of human EW-24 cell growth in a cell viability assay.

GCIY = assay type: functional, cell-based, Homo sapiens; conditions: Homo sapiens, GCIY;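 also: growth inhibition of the human GCIY cell line, read out by a cell viability assay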
Description: SANGER: Inhibition of human GCIY cell growth in a cell viability assay.

HCC2157 = assay type: functional, cell-based; conditions: Homo sapiens;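 also: growth inhibition of the cancer cell line, read out as cell viability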
Description: SANGER: Inhibition of human HCC2157 cell growth in a cell viability assay.

HEC-1 = assay type: functional, cell-based, Homo sapiens; conditions: Homo sapiens, HEC-1;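 also: growth inhibition of the cell line, read out with a cell viability assay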
Description: SANGER: Inhibition of human HEC-1 cell growth in a cell viability assay.

HLE = assay type: functional, cell-based, Homo sapiens; conditions: Homo sapiens, HLE;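 also: growth inhibition of human HLE cells, read out by a cell viability assay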
Description: SANGER: Inhibition of human HLE cell growth in a cell viability assay.

HuO-3N1 = assay type: functional, cell-based, Homo sapiens; conditions: Homo sapiens, HuO-3N1;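 also: cell viability readout used to measure how strongly compounds suppress proliferation of human HuO-3N1 cells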
Description: SANGER: Inhibition of human HuO-3N1 cell growth in a cell viability assay.

JAR = assay type: functional, cell-based, Homo sapiens; conditions: Homo sapiens, JAR;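 also: growth inhibition of human JAR cells determined with a cell viability assay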
Description: SANGER: Inhibition of human JAR cell growth in a cell viability assay.

KU-19-19 = assay type: functional, cell-based, Homo sapiens; conditions: Homo sapiens, KU-19-19
Description: SANGER: Inhibition of human KU-19-19 cell growth in a cell viability assay.

L-428 = assay type: functional, cell-based; conditions: Homo sapiens
Description: SANGER: Inhibition of human L-428 cell growth in a cell viability assay.

LS-513 = assay type: functional, cell-based, Homo sapiens; conditions: Homo sapiens, LS-513
Description: SANGER: Inhibition of human LS-513 cell growth in a cell viability assay.

MEL-HO = assay type: functional, cell-based, Homo sapiens; conditions: Homo sapiens, MEL-HO
Description: SANGER: Inhibition of human MEL-HO cell growth in a cell viability assay.

MKN-45 = assay type: functional, cell-based, Homo sapiens; conditions: Homo sapiens, MKN-45;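 also: growth inhibition of human MKN-45 cells, measured with a cell viability assay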
Description: SANGER: Inhibition of human MKN45 cell growth in a cell viability assay.

MZ2-MEL = assay type: functional, cell-based, Homo sapiens; conditions: Homo sapiens, MZ2-MEL;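 also: growth inhibition of MZ2-MEL cells read out with a cell viability assay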
Description: SANGER: Inhibition of human MZ2-MEL cell growth in a cell viability assay.

NCI-H1838 = assay type: functional, cell-based, Homo sapiens; conditions: Homo sapiens, NCI-H1838;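 also: growth inhibition of NCI-H1838 cells, determined with a cell viability readout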
Description: SANGER: Inhibition of human NCI-H1838 cell growth in a cell viability assay.

NCI-H226 = assay type: functional, cell-based, Homo sapiens; conditions: Homo sapiens, NCI-H226;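 also: cell viability read-out used to gauge growth inhibition of the cells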
Description: SANGER: Inhibition of human NCI-H226 cell growth in a cell viability assay.

NCI-H510A = assay type: functional, cell-based; conditions: Homo sapiens;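 also: growth inhibition of NCI-H510A cells, read out with a cell viability assay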
Description: SANGER: Inhibition of human NCI-H510A cell growth in a cell viability assay.

NCI-H727 = assay type: functional, cell-based, Homo sapiens; conditions: Homo sapiens, NCI-H727;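 also: growth inhibition of human NCI-H727 cells, read out with a cell viability assay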
Description: SANGER: Inhibition of human NCI-H727 cell growth in a cell viability assay.

NOS-1 = assay type: functional, cell-based, Homo sapiens; conditions: Homo sapiens, NOS-1;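 also: growth inhibition of the human NOS-1 cell line, read out with a cell viability assay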
Description: SANGER: Inhibition of human NOS-1 cell growth in a cell viability assay.

NUGC-3 = assay type: functional, cell-based, Homo sapiens; conditions: Homo sapiens, NUGC-3;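 also: growth inhibition of human NUGC-3 cells, read out with a cell viability assay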
Description: SANGER: Inhibition of human NUGC-3 cell growth in a cell viability assay.

RERF-LC-MS = assay type: functional, cell-based, Homo sapiens; conditions: Homo sapiens, RERF-LC-MS;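 also: growth inhibition of human RERF-LC-MS cells, read out by a cell viability assay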
Description: SANGER: Inhibition of human RERF-LC-MS cell growth in a cell viability assay.

RKO = assay type: functional, cell-based, Homo sapiens; conditions: Homo sapiens, RKO;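 also: growth inhibition of human RKO cells, read out with a cell viability assay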
Description: SANGER: Inhibition of human RKO cell growth in a cell viability assay.

RMG-I = assay type: functional, cell-based, Homo sapiens; conditions: Homo sapiens, RMG-I;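 also: growth inhibition of human RMG-I cells, read out with a cell viability assay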
Description: SANGER: Inhibition of human RMG-I cell growth in a cell viability assay.

S-117 = assay type: functional, cell-based, Homo sapiens; conditions: Homo sapiens, S-117
Description: SANGER: Inhibition of human S-117 cell growth in a cell viability assay.

SF-539 = assay type: functional, cell-based, Homo sapiens; conditions: Homo sapiens, SF-539;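 also: Read-out is a cell viability assay, with IC50 reflecting inhibition of cell growth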
Description: SANGER: Inhibition of human SF539 cell growth in a cell viability assay.

SH-4 = assay type: functional, cell-based, Homo sapiens; conditions: Homo sapiens, SH-4;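 also: growth inhibition of SH-4 cells, read out with a cell viability assay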
Description: SANGER: Inhibition of human SH-4 cell growth in a cell viability assay.

SK-MEL-1 = assay type: functional, cell-based; conditions: Homo sapiens;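 also: growth inhibition of human SK-MEL-1 cells, read out by a cell viability assay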
Description: SANGER: Inhibition of human SK-MEL-1 cell growth in a cell viability assay.

SK-PN-DW = assay type: functional, cell-based; conditions: Homo sapiens;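 also: growth inhibition measured with a viability assay on these cells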
Description: SANGER: Inhibition of human SK-PN-DW cell growth in a cell viability assay.

SNU-C2B = assay type: functional, cell-based, Homo sapiens; conditions: Homo sapiens, SNU-C2B;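 also: cell viability readout used to measure compound-driven suppression of SNU-C2B cell proliferation, IC50 marking half-maximal growth inhibition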
Description: SANGER: Inhibition of human SNU-C2B cell growth in a cell viability assay.

SW1710 = assay type: functional, cell-based, Homo sapiens; conditions: Homo sapiens, SW1710;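 also: growth inhibition of SW1710 cells, determined with a cell viability assay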
Description: SANGER: Inhibition of human SW1710 cell growth in a cell viability assay.

SW48 = assay type: functional, cell-based, Homo sapiens; conditions: Homo sapiens, SW48;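 also: growth inhibition of SW48 cells, read out with a cell viability assay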
Description: SANGER: Inhibition of human SW48 cell growth in a cell viability assay.

SW684 = assay type: functional, cell-based, Homo sapiens; conditions: Homo sapiens, SW684;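 also: growth inhibition of human SW684 cells, measured by a cell viability assay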
Description: SANGER: Inhibition of human SW684 cell growth in a cell viability assay.

SW756 = assay type: functional, cell-based, Homo sapiens; conditions: Homo sapiens, SW756;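 also: growth inhibition of human SW756 cells, read out with a cell viability assay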
Description: SANGER: Inhibition of human SW756 cell growth in a cell viability assay.

T-24 = assay type: functional, cell-based, Homo sapiens; conditions: Homo sapiens, T-24;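 also: growth inhibition of T-24 cells, read out with a cell viability assay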
Description: SANGER: Inhibition of human T-24 cell growth in a cell viability assay.

T98G = assay type: functional, cell-based, Homo sapiens; conditions: Homo sapiens, T98G;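 also: growth inhibition of T98G cells, read out by a cell viability assay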
Description: SANGER: Inhibition of human T98G cell growth in a cell viability assay.

639-V = assay type: functional, cell-based, Homo sapiens; conditions: Homo sapiens, 639-V;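 also: growth inhibition of 639-V cells, read out with a cell viability assay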
Description: SANGER: Inhibition of human 639-V cell growth in a cell viability assay.

ACHN = assay type: functional, cell-based, Homo sapiens; conditions: Homo sapiens, ACHN;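 also: cell viability read-out used to gauge how strongly growth of human ACHN cells is suppressed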
Description: SANGER: Inhibition of human ACHN cell growth in a cell viability assay.

BCPAP = assay type: functional, cell-based, Homo sapiens; conditions: Homo sapiens, BCPAP;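 also: growth inhibition of BCPAP cells, read out in a cell viability assay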
Description: SANGER: Inhibition of human BCPAP cell growth in a cell viability assay.

CAL-54 = assay type: functional, cell-based, Homo sapiens; conditions: Homo sapiens, CAL-54;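 also: growth inhibition of CAL-54 cells, read out by a viability measurement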
Description: SANGER: Inhibition of human CAL-54 cell growth in a cell viability assay.

TE-11 = assay type: functional, cell-based, Homo sapiens; conditions: Homo sapiens, TE-11;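 also: growth inhibition of human TE-11 cells, read out by a cell viability assay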
Description: SANGER: Inhibition of human TE-11 cell growth in a cell viability assay.

TGW = assay type: functional, cell-based; conditions: Homo sapiens;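 also: growth inhibition of human TGW cells, read out with a cell viability assay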
Description: SANGER: Inhibition of human TGW cell growth in a cell viability assay.

UACC-62 = assay type: functional, cell-based, Homo sapiens; conditions: Homo sapiens, UACC-62;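 also: growth inhibition of human UACC-62 cells, read out by a cell viability assay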
Description: SANGER: Inhibition of human UACC-62 cell growth in a cell viability assay.

UACC-893 = assay type: functional, cell-based, Homo sapiens; conditions: Homo sapiens, UACC-893
Description: SANGER: Inhibition of human UACC-893 cell growth in a cell viability assay.

CAPAN-1 = assay type: functional, cell-based, Homo sapiens; conditions: Homo sapiens, CAPAN-1;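 also: growth suppression of CAPAN-1 cells, read out by a cell viability assay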
Description: SANGER: Inhibition of human CAPAN-1 cell growth in a cell viability assay.

COLO-679 = assay type: functional, cell-based, Homo sapiens; conditions: Homo sapiens, COLO-679
Description: SANGER: Inhibition of human COLO-679 cell growth in a cell viability assay.

Structure (SMILES): CN(c1ncccc1CNc1nc(Nc2ccc3c(c2)CC(=O)N3)ncc1C(F)(F)F)S(C)(=O)=O [PF-00562271]
- pIC50 (CP50-MEL-B): < 5.59
- pIC50 (DEL): < 5.59
- pIC50 (DOHH-2): < 5.59
- pIC50 (DOK): < 5.59
- pIC50 (Daoy): < 5.59
- pIC50 (ETK-1): 5.64
- pIC50 (EW-1): < 5.59
- pIC50 (EW-18): < 5.59
- pIC50 (EW-24): < 5.59
- pIC50 (GCIY): < 5.59
- pIC50 (HCC2157): < 5.59
- pIC50 (HEC-1): < 5.59
- pIC50 (HLE): < 5.59
- pIC50 (HuO-3N1): < 5.59
- pIC50 (JAR): < 5.59
- pIC50 (KU-19-19): < 5.59
- pIC50 (L-428): < 5.59
- pIC50 (LS-513): < 5.59
- pIC50 (MEL-HO): 5.70
- pIC50 (MKN-45): < 5.59
- pIC50 (MZ2-MEL): < 5.59
- pIC50 (NCI-H1838): < 5.59
- pIC50 (NCI-H226): < 5.59
- pIC50 (NCI-H510A): < 5.59
- pIC50 (NCI-H727): < 5.59
- pIC50 (NOS-1): < 5.59
- pIC50 (NUGC-3): < 5.59
- pIC50 (RERF-LC-MS): < 5.59
- pIC50 (RKO): < 5.59
- pIC50 (RMG-I): < 5.59
- pIC50 (S-117): < 5.59
- pIC50 (SF-539): < 5.59
- pIC50 (SH-4): < 5.59
- pIC50 (SK-MEL-1): < 5.59
- pIC50 (SK-PN-DW): < 5.59
- pIC50 (SNU-C2B): < 5.59
- pIC50 (SW1710): 5.79
- pIC50 (SW48): < 5.59
- pIC50 (SW684): < 5.59
- pIC50 (SW756): < 5.59
- pIC50 (T-24): < 5.59
- pIC50 (T98G): < 5.59
- pIC50 (639-V): < 5.59
- pIC50 (ACHN): < 5.59
- pIC50 (BCPAP): 5.99
- pIC50 (CAL-54): < 5.59
- pIC50 (TE-11): 5.79
- pIC50 (TGW): < 5.59
- pIC50 (UACC-62): < 5.59
- pIC50 (UACC-893): < 5.59
- pIC50 (CAPAN-1): < 5.59
- pIC50 (COLO-679): < 5.59
